{"source": "patent US20040167028A1", "about": "“Method of introducing a substance into plant tissue” (HAMAMATSU PHOTONICS K.K., priority 2002, published 2004)", "tested_on": "tomato plant", "description": "According to the method of the invention, information relating to the amount, speed and site of introduction of the substance introduced into the plant tissue can be obtained, for example, using a positron imaging apparatus. With a positron imaging apparatus, information on the measuring target is obtained by introducing a substance labeled with positron-emitting RI as a tracer into a living body, and measuring the pair of gamma-rays produced as the positrons emitted from the RI-labeled substance are annihilated against electrons in the substance (see, for example, Japanese Patent Application Laid-Open No. 9-33658).\nFIG. 5 is a view showing the basic construction of a positron imaging apparatus. The apparatus shown in this drawing comprises a pair of two-dimensional radiation detectors 60 and 70. The two-dimensional radiation detectors 60 and 70 in turn comprise scintillator arrays 61,71 each composed of a plurality of scintillators, and photodetectors 62,72 for detection of scintillation light generated by incidence of the gamma-rays on the scintillator arrays 61,71. The radiation detectors 60,70 are housed in separate detector cases 65,75 with the radiation incidence planes of the scintillator arrays 61,71 facing each other.\nIn this construction, a pair of gamma-rays emitted from a measuring target B (a plant, according to the invention) placed on a prescribed measuring surface S between the radiation detectors 60,70 are each detected by the radiation detectors 60,70. The detection signals are outputted through connected circuit systems 63,73 having amplifier circuits, etc. for amplification of the detection signals. The outputted amplification signals are inputted into a signal processing circuit 80, and the signal processing circuit 80 identifies coincident electron/positron annihilation events and calculates the position of the annihilation, based on the detection signals from the two radiation detectors 60,70.\nTomato (Merryroad variety) approximately 4 weeks after sprouting was used as the test plant. After removing a leaf at the end of the 6th side branch from the bottom of the main stem, the end was cut in the water for use as the absorption site (conductive tissue-exposed side branch) FIG. 6 is a schematic view showing the arrangement of the main stem 3 and side branches 2 of the tomato plant used in this experiment. The absorption site was located at the end of the side branch 2 extending toward the left in FIG. 6.\nFIG. 7 is an integrated image obtained from the positron imaging apparatus, with the integrated image positioned to correspond to the positions of the main stem and side branch in FIG. 6.\nNext, all of the leaves on the substance-absorbed side branch 2 of the tomato plant used in Comparative Example 1 were removed. […] FIG. 8 is the integrated image obtained from the positron imaging apparatus, with the integrated image positioned to correspond to the positions of the, main stem and side branch in FIG. 6.\nUsing a different tomato plant from that used in Example 1 (the same variety but a different plant), a leaf at the end of the 6th side branch from the bottom of the main stem was removed in the same manner as Example 1, and the end was cut in the water for use as the absorption site in the same manner as Comparative Example 1. The other leaves on that side branch were shaded by covering them with aluminum foil to inhibit transpiration. FIG. 10 is a schematic view showing the arrangement of the main stem 3 and side branches 2 of the tomato plant used in this experiment. The absorption site was located at the end of the upper side branch 2 of the side branches 2 extending toward the left in FIG. 10.", "note": "Read-outs that look alike come from different tables or passages of the source."}
{"smiles": "O=[N+]([O-])O", "note": "[^13N-labeled nitric acid]", "values": [{"measurement": "migration of the substance in the main stem (integrated image)", "setting": "Comparative Example 1, side branch with leaves, no inhibition of transpiration, FIG. 7", "value": "almost all of the substance migrated downward in the main stem"}, {"measurement": "introduction of the substance into the side branch (integrated image)", "setting": "Comparative Example 2, leaves unshaded, no inhibition of transpiration, FIG. 12", "value": "very little of the substance had been introduced"}, {"measurement": "amount of substance introduction (RI accumulation / nitric acid absorption at the node)", "setting": "Example 1, all leaves of the absorbing side branch removed, versus Comparative Example 1 with leaves, observed for 1 hour, FIG. 9", "value": "over twice"}, {"measurement": "migration of the substance in the main stem (integrated image)", "setting": "Example 1, leaves of the side branch removed, FIG. 8", "value": "Upward migration was also confirmed in the main stem"}, {"measurement": "amount of substance introduction (RI accumulation at the node)", "setting": "Example 2, leaves of the absorbing side branch shaded with aluminum foil, versus Comparative Example 2 unshaded, FIG. 13", "value": "over twice"}, {"measurement": "migration of the substance in the main stem (integrated image)", "setting": "Example 2, leaves shaded to inhibit transpiration, FIG. 11", "value": "upward migration occurred in the main stem"}, {"measurement": "introduction of the substance into the plant (integrated image)", "setting": "Example 4, sieve tubes of the side branch eliminated by heating at about 100° C., vessels alone, FIG. 16", "value": "the substance had been introduced into the plant"}]}
